Paper PMC8977893 (Frontiers in Cell and Developmental Biology, 2022)
Where “and” joins values, the source holds several entries; their conditions need not be identical. Equal values may be shown once.

Assays:
[1] = system: calpain in washed human platelets; type: cell-based
[2] = system: talin in human platelets; type: cell-based
[3] = system: SH-SY5Y cells; type: cell-based, human
[4] = system: human platelets; type: cell-based; conditions: fibrinogen 0.5 to 2 mg/ml before PrP(106–126) 20 µM; 1 mM Ca2+
[5] = system: human platelets; type: cell-based; conditions: fibrinogen 2 mg/ml; PrP 20 µM
[6] = system: SH-SY5Y cells; type: cell-based, human; remark: listed apart in the source
[7] = system: SH-SY5Y cells; type: cell-based, human; remark: listed apart in the source
[8] = target: fibrinogen from human plasma (human, UniProt P02671 36-866; P02675 45-491; P02679 27-453); experiment: SPR; conditions: both partners purified

CNc1ccc2oc(C[C@H]3O[C@@]4(CC[C@H]3C)O[C@H]([C@H](C)C(=O)c3ccc[nH]3)[C@H](C)C[C@H]4C)nc2c1C(=O)O [A23187, reference compound]
calpain activity in platelets (in words) [1]: significant enhancement in calpain activity
proteolysis of talin (235 kDa to 190 kDa fragment) [2]: complete proteolysis of talin

C[S+](C)[O-] [DMSO, dimethylsulfoxide, reference compound]
Cell line MTT (viability, Vehicle = 100) [3]: 15.72 and 26.11 and 18.47

fibrinogen: thrombogenic plasma protein fibrinogen from human plasma (Sigma #F4883)
effect of fibrinogen pretreatment on prion-induced rise in [Ca2+]i [4]: attenuated prion-induced rise in [Ca^2+]i in a dose-dependent manner
effect of prior fibrinogen exposure on prion-induced extracellular vesicle shedding [5]: completely thwarted
drop in calpain activity on fibrinogen preincubation [1]: 30%
effect of fibrinogen on prion-mediated cleavage of talin ([2]; fibrinogen 2 mg/ml preincubation, immunoblot, 190 kDa product): completely prevented prion-mediated cleavage of talin
Cell line MTT (viability, Vehicle = 100) [3]: 101.27 and 76.19 and 118.37
effect of fibrinogen preincubation on PrP-induced loss of viability ([3]; 48 h): completely restored
abrogation of the PrP-induced FSC increase by prior fibrinogen treatment [6]: 16.34% ± 17.85
attenuation of the rise in ΔΨm on preincubation with fibrinogen [7]: 1.7 fold

B1: PrP(106–126) (peptide)
peptide: KTNMKHMAGAAAAGAVVGGLG
notes: also called prion peptide; prion
Kd [8]: 0.512 ± 0.089 µM
